Measured values taken from US7250489B2, “Purified linear polypeptide epitope from walnuts and associated methods” (priority 2001, dated 2007).
No end group written: not given here.

Columns and labels:
Parameters in all cases: species or system human
[1] = test system: IgE of walnut-allergic patients' sera; test: IgE binding to solid phase synthetic peptides (SPOTs analysis); settings: for number of patients' sera positive for the peptide: 20 individual patients' sera
Source text: The study was approved by the Human Subjects Review Committee at the University of California, Davis. Sera from 20 walnut-allergic patients with a convincing history of life-threatening systemic allergic reactions to walnuts, positive ImmunoCAP assays (Pharmacia, Inc., Diagnostics, Columbus, Ohio), and evidence of IgE against rJug r 1 (see below) were used in this study. Control sera were obtained from atopic patients with no history of walnut sensitivity, and one patient with life-threatening reactions to walnuts, positive ImmunoCAP assay, positive serum IgE immunoblot to walnut proteins, but negative for binding to the 2S albumin.
Based on the published amino acid sequence of Jug r 1 and our unpublished data determining the subunit cleavage sites,^6 twenty-five 13-amino acid peptides, offset by three amino acids, were synthesized which corresponded to the entire 64-amino acid length of the large subunit (FIG. 1A) and 26-amino acid length of the small subunit (FIG. 1B). Additional peptides bearing the target epitope (QGLRGEEMEEMV), SEQ ID NO:1, mutated forms of this peptide, and a non-IgE binding peptide (LSQRGLQSSSV), SEQ ID NO:6, were also synthesized. […] versions of the target peptide were created via a single site alanine substitution at each position along the amino acid sequence, and six mutated peptides were synthesized using multiple alanine substitutions, as shown in FIG. 6.
Peptides were synthesized on derivatized cellulose sheets using 9-fluorenlymethoxy carbonyl-derived (Fmoc) amino acids as described by the manufacturer (Genosys Biotechnologies, Inc., The Woodlands, Tex.). Briefly, cellulose membranes containing free hydroxy groups were esterfied with an Fmoc-amino acid dissolved in 1-methyl-2 pyrrolidione. The coupling reaction was followed by washing in N,N-dimethylformamide (DMF) and the amino acids were acetylated with acetic anhydride. The membranes were deprotected by washing in DMF and incubation with a solution of 20% piperidine in DMF followed by another wash in DMF. Coupling, acetylation, and deprotection steps were repeated for each cycle. During the final cycle, a mixture of dichloromethane, trifluoroacetic acid, and triisobutylsilane (1:1:0.05) was used to deprotect the acid-labile amino acid side chains.
(§1) The peptide-containing membranes were washed in TBS and incubated o/n at RT in blocking solution as directed by the manufacturer (Genosys Biotechnologies, Inc., The Woodlands, Tex.). Membranes were then washed in TBS-T for 10 min and incubated o/n at 4° C. with individual patient's serum or pooled patients' sera diluted 1:5 in blocking buffer (total sera:blocking buffer). This incubation was followed by three 5-min washes in TBS-T and an o/n (4° C.) incubation with ^125I-anti-human IgE (Hycor Biomedical Inc., Garden Grove, Calif.) diluted 1:10 in a mixture of PBS, 5% nonfat dry milk, and 0.05% Tween-20. Three final 10 min washes in PBS/0.05% Tween-20 were performed and IgE-peptide reactivity identified after a 48 hr exposure at −70° C. to Kodak Biomax x-ray film.

[2] = test system: patient serum IgE binding to rJug r 1; test: Inhibition by soluble epitope peptide of IgE binding to dot-blotted rJug r 1
Description: For dot-blot assays, a graphite pencil was used to circumscribe 4 mm×8 mm elipses on a dry 0.4 μm NC membrane (Shleicher & Schuell; Keen, N.H.). The NC was incubated in distilled-deionized water (ddH2O) on a rocking table for 5 min and allowed to air dry before each dot was loaded with 0.11 μg of rJug r 1 in 2 μl of ddH2O. The antigen-loaded NC was then rinsed in ddH2O as described above, placed protein side up on 3MM paper (Whatman Intl. Ltd., Maidstone, England), and dried under a 60-watt light until all moisture was removed. […]
(§2) To test the specificity and reactivity of the epitope-specific IgE, control, pooled and fractionated patients' sera were pre-incubated o/n at 4° C. with different amounts (70, 7.0, and 0.7 μg) of the soluble epitope peptide, or a soluble non-specific peptide. […] Detection of IgE binding to the solid-phase synthetic peptides and dot-blotted rJug r 1 was detected using ^125I-anti-human IgE and ECL+, respectively, as described earlier.

[3] = test system: E1-specific IgE of patients' sera; test: Inhibition by soluble epitope peptide of IgE binding to solid-phase E1 peptide
Description: as §1
A soluble form of an identified IgE-reactive peptide is (QGLRGEEMEEMV) was synthesized by Fmoc protocols on an automated peptide synthesizer (Model 433A, Applied Biosystems, Foster City, Calif.).
as §2

[4] = of the 20 patients tested, FIG. 4

| Sequence | number of patients' sera positive for the peptide [1] | inhibition of IgE binding to rJug r 1, eluate (E1 epitope-specific) IgE fractions ([2]; 70 μg soluble peptide, affinity column purified IgE fractions) | inhibition of binding of IgE to the intact rJug r 1 ([2]; patients' IgE, soluble peptide) | number of patients exhibiting moderate recognition of the epitope peptide [1, 4] | number of patients exhibiting strong recognition of the epitope peptide [1, 4] | number of patients exhibiting weak recognition of the epitope peptide [1, 4] | number of patients showing no recognition of the epitope peptide [1, 4] | inhibition of binding of E1-specific IgE to the solid phase epitope ([3]; 70 μg soluble peptide) | inhibition of IgE binding to solid-phase E1 peptide ([3]; 70, 7.0, 0.7 μg peptide pre-incubated with whole patients' sera, FIG. 5C) |
| --- | --- | --- | --- | --- | --- | --- | --- | --- | --- |
| LSQRSQQQCRQ [(−) peptide, reference compound] | none |  |  |  |  |  |  |  |  |
| QGLRGEEMEEMV (not fully specified; listed as Juglans regia) [E1, solid-phase and soluble forms] | 15 | Inhibition was again observed | did not completely inhibit | six | five | four | five | completely inhibit | Partial to complete inhibition |
